Assay results as given in BindingDB's records for PubMed 2139469 (University of Nebraska, 1990).
Counter-ions that a name gives are not always drawn.

Each molecule was assayed against D(1A) dopamine receptor (Bos taurus, UniProt Q95136).
Sequence of D(1A) dopamine receptor (Q95136 whole entry): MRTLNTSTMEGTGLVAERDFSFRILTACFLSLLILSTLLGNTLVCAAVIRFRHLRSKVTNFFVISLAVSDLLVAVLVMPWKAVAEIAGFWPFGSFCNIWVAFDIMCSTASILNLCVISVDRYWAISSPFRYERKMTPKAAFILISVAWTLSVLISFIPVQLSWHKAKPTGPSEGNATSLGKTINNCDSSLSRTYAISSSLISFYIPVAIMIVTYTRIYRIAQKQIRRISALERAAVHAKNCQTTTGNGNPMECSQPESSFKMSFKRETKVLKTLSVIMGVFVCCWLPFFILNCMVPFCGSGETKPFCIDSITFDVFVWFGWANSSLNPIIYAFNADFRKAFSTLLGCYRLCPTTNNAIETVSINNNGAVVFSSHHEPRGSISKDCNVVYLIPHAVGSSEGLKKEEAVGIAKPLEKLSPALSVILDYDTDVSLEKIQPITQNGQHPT

Structure (SMILES)	Ki
C=CCN1CC[C@]23c4c5ccc(O)c4O[C@H]2C(=O)CC[C@@]3(O)[C@H]1C5 [[17-(2,3-3H-2-propenyl)]-4,5a-epoxy-3,14-dihydroxymorphinan-6-one]	> 10000 nM
O=c1[nH]c2ccccc2n1CCCN1CCC(n2c(=O)[nH]c3cc(Cl)ccc32)CC1	2040 nM
O=C(CCCN1CCC(O)(c2ccc(Cl)cc2)CC1)c1ccc(F)cc1 [4-[4-(4-Chloro-phenyl)-4-hydroxy-piperidin-1-yl]-1-(4-fluoro-phenyl)-butan-1-one;propionate(HCl)]	315 nM
OCCC1CCN(CC/C=C2/c3ccc(F)cc3Sc3ccc(C(F)(F)F)cc32)CC1 [Lu 12-331]	0.29 nM
Cc1ccc(N(CC2=NCCN2)c2cccc(O)c2)cc1 [SMR000059054]	> 10000 nM
CN1CCN2c3ccccc3Cc3ccccc3[C@H]2C1 [MIANSERIN (+)]	318 nM
CN(C)CCCSc1ccccc1NC(=O)/C=C/c1ccccc1 [CINANSERIN]	2090 nM
CSc1ccc2c(c1)N(CC[C@@H]1CCCCN1C)c1ccccc1S2 [10-[2-(1-Methyl-piperidin-2-yl)-ethyl]-2-methylsulfanyl-10H-phenothiazine (thioridazine)]	75.4 nM
CN1[C@@H]2CC[C@H]1CC(OC(=O)[C@H](CO)c1ccccc1)C2 (some centres not stated) [CAS_51-55-8]	> 10000 nM
O=C(c1ccc(F)cc1)C1CCN(CCn2c(=O)[nH]c3ccccc3c2=O)CC1 [3-(2-{4-[(4-fluorophenyl)carbonyl]piperidin-1-yl}ethyl)-1,2,3,4-tetrahydroquinazoline-2,4-dione]	395 nM
CC[C@@H](CO)NC(=O)[C@@H]1C=C2c3cccc4c3c(cn4C)C[C@H]2N(C)C1	1580 nM
CCN1CCCC1CNC(=O)c1cc(S(N)(=O)=O)ccc1OC (configuration not stated) [N-[(1-ethylpyrrolidin-2-yl)methyl]-2-methoxy-5-sulfamoylbenzamide]	> 10000 nM
